# From patent US8822533B1, “Methods and compositions for repelling and/or killing insects” (The United States of America, as represented by the …, priority 2011, dated 2014)
# Tests used:
# [1] = tested on: bed bugs (Cimex lectularius); test: Bed bug mortality on treated filter paper; assay type: in vivo; settings: 24 h
# [2] = tested on: bed bugs (Cimex lectularius); test: Bed bug mortality on treated filter paper; assay type: in vivo
# Description: Knockdown data and mortality for volatile pyrethroids against bed bugs (Cimex lectularius): Compounds were dissolved in acetone to yield concentrations of 100 μg/cm^2, 10 μg/cm^2, and 1 μg/cm^2 and 47 mm filter paper disks were treated. Acetone-treated filter paper was used as a negative control. Mixed stages (nymphs and adults) of a laboratory colony of the bed bug Cimex lectularius were placed on the treated filter paper in glass Petri dishes and mortality was recorded 24 h later, at which time bed bugs were removed to untreated surfaces. 24 h after this transfer another assessment of mortality was made to see if any dead or moribund bugs had recovered.
# [3] = tested on: Ae. aegypti + An. albimanus; test: Bite protection of FRACUs (Defender-M) treated with insecticides; assay type: in vivo; settings: FRACU (Defender-M) sleeve; allethrin 0.085, bioresmethrin 0.106, etofenprox 0.101, bifenthrin 0.101 mg/cm^2
# Description: Biological Evaluation: Bite protection assays were conducted with laboratory-reared 7-12 day old mosquitoes or sand flies. The species used throughout these studies are Aedes aegypti (Orlando, 1952) and Phlebotomus papatasi sand flies (Jerusalem, 1983). Females were pre-selected using either a hand draw box or a mechanical aspirator.
# An assay was conducted by wearing sewn sleeves made from clothing material. Treated specimens were assayed with untreated controls to correct for the bite resistance afforded by material construction and composition. The untreated control was tested at the beginning of the experiment, followed by successively higher candidate repellent concentrations on sleeves. Sleeves were sewn from a cut out single ply trapezoidal pattern (33.2 cm×21 cm×25.5 cm height) of material. Sleeves were normally with a candidate repellent at the EPA permethrin label rate of 0.52% weight on (+5% tolerance) or less (0.125 mg/cm^2 for the 50/50 Nylon/Cotton (NYCO) Army Combat Uniform and 0108 mg./cm2 for the 65% Rayon/25% Para-aramid/10% Nylon Fire-Resistant Army Combat Uniform). Permethrin was 35:65cis: trans, 95.85% technical material. Experimental repellents were received as neat samples with <5% impurities. The treatment occurred by dissolution of repellent in suitable quantity of acetone to saturate the clothing, but minimizing excess solution. Excess solution was quantified and this amount of excess was then used to calculate the estimated amount of repellent applied to the material.
# Insects were maintained in colony at approximately 78° F. and 60-80% RH. The photoperiod was 12:12. The mosquito cages were approximately 60000 cm^3 and each contained 175 to 225 female mosquitoes. […] Cages for sand fly work were slightly smaller (15000 cm^3) and constructed of acrylic for filming purposes and with screens on the exterior edges to allow air flow through the system. About 20-40 sand flies were released in cages for each assay. Assays started when the sleeved arm was inserted through the sleeve into the cage. Normally the hand was protected by a glove, but there were situations (i.e. sand fly data presented here) when the ability of a repellent to protect the untreated hand was determined. The assay periods were 15 min for the mosquitoes and 25-30 minutes for sand flies. The insects were allowed to land, probe and possibly bloodfeed during this time. At the conclusion of the experiment, all insects were knocked down or aspirated and the percentage that bloodfed of the total female test population in the cage was recorded. The protect level was calculated by Abbott's formula as a percentage reduction in bites compared to the untreated fabric control sleeve.
# We were able to examine several treatments on the FRACU fabric sleeves (Table 7). […]
# [4] = tested on: Phlebotomus papatasi sand flies; test: Sleeve bite protection assay on treated uniform fabric, sand flies; assay type: in vivo, Phlebotomus papatasi (Jerusalem, 1983); settings: FRACU, permethrin sleeve 0.134 mg/cm^2 + treated strip, hand ungloved; strip TL-I-73 0.167, transfluthrin 0.161 mg/cm2
# Description: (§1) Biological Evaluation: Bite protection assays were conducted with laboratory-reared 7-12 day old mosquitoes or sand flies. The species used throughout these studies are Aedes aegypti (Orlando, 1952) and Phlebotomus papatasi sand flies (Jerusalem, 1983). Females were pre-selected using either a hand draw box or a mechanical aspirator. An assay was conducted by wearing sewn sleeves made from clothing material. Treated specimens were assayed with untreated controls to correct for the bite resistance afforded by material construction and composition. The untreated control was tested at the beginning of the experiment, followed by successively higher candidate repellent concentrations on sleeves. Sleeves were sewn from a cut out single ply trapezoidal pattern (33.2 cm×21 cm×25.5 cm height) of material. […] Permethrin was 35:65cis: trans, 95.85% technical material. Experimental repellents were received as neat samples with <5% impurities. The treatment occurred by dissolution of repellent in suitable quantity of acetone to saturate the clothing, but minimizing excess solution. Excess solution was quantified and this amount of excess was then used to calculate the estimated amount of repellent applied to the material. […] The photoperiod was 12:12. The mosquito cages were approximately 60000 cm^3 and each contained 175 to 225 female mosquitoes. […] Cages for sand fly work were slightly smaller (15000 cm^3) and constructed of acrylic for filming purposes and with screens on the exterior edges to allow air flow through the system. About 20-40 sand flies were released in cages for each assay. Assays started when the sleeved arm was inserted through the sleeve into the cage. Normally the hand was protected by a glove, but there were situations (i.e. sand fly data presented here) when the ability of a repellent to protect the untreated hand was determined. The assay periods were 15 min for the mosquitoes and 25-30 minutes for sand flies. The insects were allowed to land, probe and possibly bloodfeed during this time. At the conclusion of the experiment, all insects were knocked down or aspirated and the percentage that bloodfed of the total female test population in the cage was recorded. The protect level was calculated by Abbott's formula as a percentage reduction in bites compared to the untreated fabric control sleeve. Specific conditions for bioassays are noted with corresponding data contained in the Tables.
# Ae. aegypti mosquitoes = test: Sleeve bite protection assay on treated uniform fabric, mosquitoes; assay type: in vivo, Aedes aegypti (Orlando, 1952)
# Description: as §1
# [5] = tested on: Mosquitoes, either Aedes aegypti (Liverpool) or Anopheles stephensi Liston; test: K&D module in vitro bioassay: biting protection, knockdown and mortality; assay type: in vivo
# Description: In vitro bioassays were conducted as described by Klun et. al. (Klun, J. A., et al., J. Med. Entomol., 40: 293-299 (2005)). Each test replicate consisted of 3 treatments: a control (EtOH); a standard (Deet, 4.54 nmol/μl); and an experimental compound (pyrethroid analogs, 4.54 nmol/ul). The 3 treatments were randomly assigned to consecutive cells in 2, 6-cell reservoirs connected in series to a single water-bath pump; thus, 4 replicates could be tested/run. Tests were performed in an Air Science USA hood, with an air movement velocity of approx. 110-120 ft./min., temperature of 25-27° C., and RH of 15-25%. A 6-celled reservoir was connected to and heated by a constant-temperature (38° C.) water circulator (Lauda E100, Wobser GMGH and Co., Konigshofell, Germany).
# Prior to each test, the upper surface of each reservoir was coated with a thin layer of high-vacuum silicone grease (Dow Corning Corp., Midland, Mich.), and the cells then filled (approx. 6 ml. capacity) or topped-off with either: (1) expired human red blood cells suspended in citrate-phosphate-dextrose-adenine (CPDA) solution, not more than 1 month past expiration date, and to which 110 mg ATP/35 ml. blood-CPDA had been added on the day of testing; or (2) CPDA+ATP×^−3, usually made up or diluted to 10^−3 ATP on the day of testing. The filled cells were then covered with an Edicol collagen membrane (Devro, Sandy Run, S.C.) strip, and then with a just-treated (110 μl of 4.54 nmol/μl treatment or control solution) organdy cloth (G Street Fabrics, Rockville, Md.) strip. Mosquitoes used in tests were either Aedes aegypti_(Liverpool) or Anopheles stephensi_Liston. K&D modules containing 5 adult females/cell were placed over a Teflon separator atop each reservoir; the sliding floors opened allowing access to the treated organdy cloth and membrane-covered cell; and the number of mosquitoes biting (proboscis inserted through the cloth) and/or observed to be engorged within each cell at the end of a 3-5 min. exposure period was recorded. Mosquitoes were used only once in a test, and then frozen and discarded.
# Only tests in which 3 or more females fed in the control cell were analyzed, as lower feeding rates are indicative of substandard feeding readiness of that group of mosquitoes.
# […] Data were collected to record knockdown in 6 minutes, one hour and 24 hours post exposure.
# [6] = ACU sleeve, No Glove on hand, permethrin 0.118, transfluthrin 0.108 mg/cm^2
# [7] = ACU sleeve, stored one year then tested, concentrations as E1
# [8] = FRACU sleeve, concentrations as E9
# [9] = FRACU, untreated sleeve + treated strip, Ultrathon (34.34% DEET) on hand, TL-I-73 0.163, transfluthrin 0.158 mg/cm^2
# [10] = FRACU, untreated sleeve + treated strip, hand gloved, TL-I-73 0.163, transfluthrin 0.158 mg/cm^2
compound,measurement,setting,value
Cc1c(Cl)c(Cl)c(COC(=O)[C@@H]2[C@@H](C=C(Cl)Cl)C2(C)C)c(Cl)c1Cl [TL-I-111],mortality at 5 µg/cm2,[1],100%
same,mortality at 1 µg/cm2,"[2]; Cimex lectularius, 24 h",0%
same,mortality at 10 µg/cm2,"[2]; Cimex lectularius, 24 h",100%
same,mortality at 100 µg/cm2,"[2]; Cimex lectularius, 24 h",100%
CCOc1ccc(C(C)(C)COCc2cccc(Oc3ccccc3)c2)cc1 [Etofenprox],Bite Protection (% ± SE) (Ae. aegypti + An. albimanus),[3],94.9 ± 0.6%
"CC1(C)[C@H](C=C(Cl)Cl)[C@H]1C(=O)OCc1c(F)c(F)cc(F)c1F [Transfluthrin, transfluthrin]",Bite Protection (%),[4],significant protection from sand fly bites to the unprotected hand
same,mortality (in words),[2]; at either 100 μg/cm^2 or 10 μg/cm^2,no mortality or mortality less than 100%
same,mortality (value in parentheses),[2]; concentration not clearly stated for this group,20%
same,Blood-fed #,"Ae. aegypti mosquitoes; ACU (50/50 NYCO) sleeve, glove on hand, 15 min, permethrin 0.118, transfluthrin 0.108, TL-I-107 0.107, TL-I-141 0.109, TL-I-105 0.107, TL-I-73 0.102 mg/cm^2",0 #
same,Bite Protection (%),"Ae. aegypti mosquitoes; ACU (50/50 NYCO) sleeve, glove on hand, Abbott's formula vs untreated sleeve, concentrations as E1",100%
same,Fed (%),"Ae. aegypti mosquitoes; ACU (50/50 NYCO) sleeve, glove on hand, concentrations as E1",0.0%
same,Blood-fed #,Ae. aegypti mosquitoes; [6],4 #
same,Fed (%),Ae. aegypti mosquitoes; [6],2.1%
same,protecting non-repellent treated surfaces of skin (i.e. the hand),"Ae. aegypti mosquitoes; ACU sleeve, glove removed from hand, compared with permethrin",superior to permethrin
same,Bite Protection (%),Ae. aegypti mosquitoes; [7],100%
same,Fed (%),Ae. aegypti mosquitoes; [7],0.0%
same,Blood-fed #,"Ae. aegypti mosquitoes; ACU sleeve, treated specimens stored in refrigerator for one year then tested, concentrations as E1",0 #
same,bite protection,Ae. aegypti mosquitoes; Defender-M FRACU sleeve at 0.52 mg/cm2,100%
same,Blood-fed #,"Ae. aegypti mosquitoes; FRACU (65% Rayon, 10% Nylon, 25% Para-aramid) sleeve, permethrin 0.071, combination permethrin 0.031 + transfluthrin 0.038, transfluthrin 0.052 mg/cm^2",0 #
same,Bite Protection (%),Ae. aegypti mosquitoes; [8],100.0%
same,Fed (%),Ae. aegypti mosquitoes; [8],0.0%
same,Bite Protection (%),"Ae. aegypti mosquitoes; FRACU sleeve, concentrations as E9, listed as transfluthrin",100%
same,Bite Protection (%),"Ae. aegypti mosquitoes; FRACU, permethrin sleeve 0.134 mg/cm^2 + treated strip, hand gloved, strip TL-I-73 0.167, transfluthrin 0.161 mg/cm^2",100%
same,Blood-fed #,"Ae. aegypti mosquitoes; FRACU, untreated sleeve + treated strip (20.5 cm × 2.6 cm) at wrist, hand gloved, TL-I-73 0.163, transfluthrin 0.158 mg/cm^2",11 #
same,Blood-fed #,"Ae. aegypti mosquitoes; FRACU, untreated sleeve + treated strip, Ultrathon 12 hr repellent (34.34% DEET) on hand, TL-I-73 0.163, transfluthrin 0.158 mg/cm^2",6 #
same,Bite Protection (%),Ae. aegypti mosquitoes; [9],89.2%
same,Fed (%),Ae. aegypti mosquitoes; [9],2.9%
same,Bite Protection (%),Ae. aegypti mosquitoes; [10],93.3%
same,Fed (%),Ae. aegypti mosquitoes; [10],5.5%
same,Knockdown 6 min (%),"[5]; 2.5 nM\cm^2, K&D module",100%
same,Knockdown 24 hours (%),"[5]; 2.5 nM\cm^2, K&D module",100%
same,Not feeding 3 minutes (%),"[5]; 2.5 nM\cm^2, K&D module",100%
same,Knockdown 1 hour (%),"[5]; 2.5 nmol/cm^2, K&D module",100%
same,Knockdown 6 min (%),"[5]; 25 nM\cm^2, K&D module",100%
same,Knockdown 24 hours (%),"[5]; 25 nM\cm^2, K&D module",100%
same,Not feeding 3 minutes (%),"[5]; 25 nM\cm^2, K&D module",100%
same,Knockdown 1 hour (%),"[5]; 25 nmol/cm^2, K&D module",100%
same,mortality at 0.0025 µM,"[5]; Aedes aegypti, 24 h",100%
same,mortality at 0.025 µM,"[5]; Aedes aegypti, 48 h",100%
C=CCC1=C(C)C(OC(=O)C2C(C=C(C)C)C2(C)C)CC1=O (stereo not shown) [Allethrin],Bite Protection (% ± SE) (Ae. aegypti + An. albimanus),[3],98.7 ± 0.8%
